Source: patent publication US6403617B1, “Diaminopyridine-containing thiourea inhibitors of herpes viruses” (American Home Products Corp., priority 1998, dated 2002)
In brackets after ≈: the same amount, converted by molar mass.

Columns and labels:
HCMV wild-type = test: HCMV yield assay; format: cell-based, Human Cytomegalovirus; details: human foreskin fibroblasts, reduction of virus yield by 50%; for IC50: Human betaherpesvirus 5, Fibroblast, read-out: IC50 (ug/ml) HCMV
Experimental: Yield assay. Monolayer cultures of human foreskin fibroblasts are infected with HCMV wild-type, typically at a multiplicity of infection equal to 0.2, in the presence of inhibitor compound (varying concentrations). At three days post-infection, total virus produced in these cultures (i.e. virus yield) is assessed by harvesting and titering the virus in 12-well plates of cultured human foreskin fibroblasts (done in the absence of inhibitor). Plaques are quantified at 2 weeks post-infection. An inhibitor of HCMV is identified by the reduction in titer of virus yield in the presence, compared to the titer in the absence of compound. In this assay, the relative anti-HCMV activity of an inhibitor is typically determined by calculating the IC50 or IC90 value, that is, the amount of compound required to reduce the virus yield by 50% or 90%, respectively. Table I describes IC50 data for compounds tested against HCMV.

HSV-1 = test: HSV Antiviral (ELISA) Assay; format: cell-based, herpes simplex virus type 1; details: Vero cells, HSV-1, about 24 hours post-infection; for IC50: Human alphaherpesvirus 1, read-out: IC50 (ug/ml) HSV
Experimental: Vero cells (ATCC #CCL-81) are plated on 96-well tissue cultugre plates at 3.5×10^4 cells per 100 μl tissue culture DMEM (Dulbecco's modified Eagle media) supplemented with 2% fetal bovine serum (FBS) in each well. After overnight incubation @ 37° C. (in 5% CO2) and 30 minutes prior to infection with HSV-1 (multiplicity of infection equal to 0.006), cells are either untreated, or treated with test compound (multiple concentrations) or reference standard drug control. After approximately 24 hours post-infection incubation @ 37° C. (in 5% CO2), cells are fixed for ELISA assay. The primary antibody is murine anti-HSV glycoprotein D monoclonal primary antibody and the secondary antibody is goat anti-mouse IgG linked to β-galactosidase. Thus the extent of viral replication is determined by assessing β-galactosidase activity by quantifying the generation of the 4-methyl umbelliferone fluorescent cleavage product after addition of the methyl umbelliferyl-β-D-galactoside (Sigma #M1633) substrate on a microfluorimeter (365 nm for excitation and 450 nm for emission). Antiviral activity (IC50) of the test compound is determined by comparing the flourescence obtained in absence of compound to that obtained in the presence of compound.

VZV strain Ellen = test: VZV Antiviral (ELISA) Assay; format: cell-based, varicella-zoster virus; details: human foreskin fibroblast cells, three days; for inhibition at 10 µg/mL / IC50: Human alphaherpesvirus 3, 72 h; for inhibition at 10 µg/mL: read-out: % inhibition 10 ug/ml VZV; for IC50: read-out: IC50 (ug/ml) VZV
Experimental: For the generation of stock VZV to be used in the assay, VZV strain Ellen (ATCC #VR-1367) is used to infect human foreskin fibroblast (HFF) cells at low multiplicity (less than 0.1) and incubated overnight at 37° C. in 5% CO2. After the overnight incubation, the mixture of uninfected and VZV-infected HFF infected cells are then harvested and added to each well of 96-well plates (3.5×10^4 cells in 100 μl DMEM supplemented with 2% FBS) which contain test compound or the reference standard drug control (in 100 μl DMEM supplemented with 2% FBS per well). These cells are incubated for three days at 37° C. in 5% CO2, then fixed for ELISA assay. The primary antibody is murine anti-VZV glycoprotein II monoclonal antibody (Applied Biosystems, Inc. #13-145-100) and the secondary antibody is goat anti-mouse IgG linked to β-galactosidase. Thus the extent of viral replication is determined by assessing β-galactosidase activity by quantifying the generation of the 4-methyl umbelliferone fluorescent cleavage product after addition of the methyl umbelliferyl-β-D-galactoside (Sigma #M1633) substrate on a microfluorimeter (365 nm for excitation and 450 nm for emission). Antiviral activity (IC50) of the test compound is determined by comparing the flourescence obtained in absence of compound to that obtained in the presence of compound.

Row | Compound | IC50 (HCMV wild-type) | IC50 (HSV-1) | inhibition at 10 µg/mL (VZV strain Ellen; 10 ug/ml) | IC50 (VZV strain Ellen) | IC50 (ug/ml) HCMV (HCMV wild-type) | IC50 (ug/ml) HSV (HSV-1) | % inhibition 10 ug/ml VZV (VZV strain Ellen; 10 ug/ml) | IC50 (ug/ml) VZV (VZV strain Ellen)
1 | COc1cc(OC)c(NC(=S)Nc2ccc(NC(=O)c3ccccc3F)cn2)cc1Cl [Example 507, N-{6-[3-(5-Chloro-2,4-dimethoxy-phenyl)-thioureido]-pyridin-3-yl}-2-fluoro-benzamide] | 1.2 µg/mL (≈ 2.6 µM) | 10 µg/mL (≈ 21.7 µM) | 90% | 4 µg/mL (≈ 8.68 µM) | – | – | – | –
2 | Pyridine-2-carboxylic acid {6-[3-(5-chloro-2,4-dimethoxy-phenyl)-thioureido]-pyridin-3-yl}-amide [Example 506] | – | – | – | – | >10 µg/mL | >10 µg/mL | 68% | >10 µg/mL
3 | COc1cc(OC)c(NC(=S)Nc2cccnc2NC(=O)c2csnn2)cc1Cl [Example 498, [1,2,3]Thiadiazole-4-carboxylic acid {3-[3-(5-chloro-2,4-dimethoxy-phenyl)-thioureido]-pyridin-2-yl}-amide] | 0.14 µg/mL (≈ 0.31 µM) | 6 µg/mL (≈ 13.3 µM) | 14% | > 10 µg/mL | – | – | – | –
4 | COc1cc(OC)c(NC(=S)Nc2ccc(NC(=O)c3csnn3)cn2)cc1Cl [Example 514, [1,2,3]Thiadiazole-4-carboxylic acid {6-[3-(5-chloro-2,4-dimethoxy-phenyl)-thioureido]-pyridin-3-yl}-amide] | 1.2 µg/mL (≈ 2.66 µM) | 4 µg/mL (≈ 8.87 µM) | 62% | > 10 µg/mL | – | – | – | –
5 | COc1cc(OC)c(NC(=S)Nc2ccc(NC(=O)c3ccco3)cn2)cc1Cl [Example 512, Furan-2-carboxylic acid {6-[3-(5-chloro-2,4-dimethoxy-phenyl)-thioureido]-pyridin-3-yl}-amide] | 0.7 µg/mL (≈ 1.62 µM) | 0.5 µg/mL (≈ 1.16 µM) | 70% | 4 µg/mL (≈ 9.24 µM) | – | – | – | –
6 | O=C(Nc1ccc(NC(=S)Nc2cc(Cl)cc(Cl)c2)cn1)c1csnn1 [Example 515, [1,2,3]Thiadiazole-4-carboxylic acid {5-[3-(3,5-dichloro-phenyl)-thioureido]-pyridin-2-yl}-amide] | > 10 µg/mL | > 10 µg/mL | 30% | > 10 µg/mL | – | – | – | –
7 | COc1cc(OC)c(NC(=S)Nc2ccc(NC(=O)c3ccccc3C)nc2)cc1Cl [Example 283, N-[5-[[[(5-Chloro-2,4-dimethoxyphenyl)amino]thioxomethyl]amino]-2-pyridinyl]-2-methylbenzamide] | 7 µg/mL (≈ 15.3 µM) | 0.6 µg/mL (≈ 1.31 µM) | 17% | > 10 µg/mL | – | – | – | –
8 | COc1cc(OC)c(NC(=S)Nc2cccnc2NC(=O)c2ccco2)cc1Cl [Example 284, Furan-2-carboxylic acid {3-[3-(5-chloro-2,4-dimethoxy-phenyl)-thioureido]-pyridin-2-yl}-amide] | 0.4 µg/mL (≈ 0.924 µM) | 3 µg/mL (≈ 6.93 µM) | 100% | > 15 µg/mL | – | – | – | –
9 | COc1cc(OC)c(NC(=S)Nc2ccc(NC(=O)c3ccccn3)nc2)cc1Cl [Example 499, Pyridine-2-carboxylic acid {5-[3-(5-chloro-2,4-dimethoxy-phenyl)-thioureido]-pyridin-2-yl}-amide] | 3 µg/mL (≈ 6.76 µM) | 5 µg/mL (≈ 11.3 µM) | 25% | > 10 µg/mL | – | – | – | –
10 | CC(NC(=S)Nc1ccc(NC(=O)c2cscn2)nc1)c1cc(F)cc(C(F)(F)F)c1 (centres unmarked) [Example 820, N-(5-{[({1-[3-fluoro-5-(trifluoromethyl)phenyl]ethyl}amino)carbothioyl]amino}-2-pyridinyl)-1,3-thiazole-4-carboxamide] | 0.0013 µg/mL (≈ 0.00277 µM) | – | – | 3.4 µg/mL (≈ 7.24 µM) | – | – | – | –
11 | COc1cc(OC)c(NC(=S)Nc2ccc(NC(=O)c3ccccc3F)nc2)cc1Cl [Example 289, N-{5-[3-(5-Chloro-2,4-dimethoxy-phenyl)-thioureido]-pyridin-2-yl}-2-fluoro-benzamide] | > 10 µg/mL | 0.6 µg/mL (≈ 1.3 µM) | 30% | > 10 µg/mL | – | – | – | –
12 | N-(6-{[({(1S)-1-[3,5-bis(trifluoromethyl)phenyl]ethyl}amino)carbothioyl]amino}-3-pyridinyl)-1,2,3-thiadiazole-4-carboxamide [Example 829] | – | – | – | – | 0.08 µg/mL | – | – | >7.5 µg/mL
